In the SangsterLogP compilation one finds logP data, which are given here for 126 compounds.

Each structure is given as a SMILES string.

In general, logP refers to the decadic logarithm of the partition coefficient of the neutral form, usually between octanol and water. A high value points to higher lipophilicity. In the case of `O=C(NC1(C(F)F)CCC1)c1ccccc1`, the lipophilicity (logP) was determined as 2.48. For `O=C(NC1(C(F)(F)F)CCC1)c1ccccc1`, the logP was 2.51. Compound `O=C(c1ccccc1)N1CC2CC1(C(F)(F)F)C2` came in with a logP of 1.93. `O=C(Nc1ccccc1)C1CCCC1` displayed a logP of 2.68.

Regarding `O=C(Nc1ccccc1)[C@H]1C[C@@H](F)C1`, the logP came out at 1.86. In turn, `O=C(Nc1ccccc1)C1CCCC(F)(F)CC1` (stereo unspecified) gave a logP of 2.95. As for `O=C(Nc1ccccc1)C1CCCCC1(F)F` (stereo unspecified), the logP stood at 2.5. Under `O=C(Nc1ccccc1)C1CC2(C1)CC(F)(F)C2` stands 2.93; under `CCCCNC(=O)c1ccccc1`, 2.23.

With `O=C(c1ccccc1)N1CC2CCCC1C2` (stereo unspecified), the logP stood at 1.88.

In the case of `O=C(N[C@@H]1CC[C@H]1F)c1ccccc1`, the logP worked out at 1.64.

In turn, `C[C@@H]1C[C@@H]1C(=O)Nc1ccccc1` displayed a logP of 2.31. For the compound `O=C(Nc1ccccc1)[C@H]1C[C@@H](C(F)(F)F)C1`, the logP was determined as 2.72. In turn, `O=C(c1ccccc1)N1CC(F)C1` showed a lipophilicity (logP) of 0.94.

Compound `O=C(c1ccccc1)N1CCCC1C(F)F` (stereo unspecified) gave a logP of 1.88. `O=C(NCCC(F)F)c1ccccc1` displayed a logP of 1.49. `O=C(Nc1ccccc1)C1CCCCC1` had a logP of 2.88. In turn, `CNC(=O)c1ccccc1` yielded a logP of 1.03.

The compound `O=C(c1ccccc1)N1CC2CCC1C2` (stereo unspecified) returned a logP of 1.65.

`O=C(N[C@H]1C[C@H]1C(F)F)c1ccccc1` gave a log partition coefficient (logP) of 1.36. Regarding `O=C(Nc1ccccc1)C1C(F)(F)C12CC2` (stereo unspecified), the log partition coefficient (logP) was 2.42. `O=C(Nc1ccccc1)C1CC1` showed a logP of 1.92. Turning to `O=C(Nc1ccccc1)[C@@H]1C[C@@H]1CF`, the logP stood at 1.88. In the case of `O=C(Nc1ccccc1)C12CC(C(F)F)(CO1)C2`, the logP turned out to be 1.93. `O=C(c1ccccc1)N1CCCC(F)(F)C1` returned a logP of 1.65.

As to `O=C(Nc1ccccc1)[C@H]1C[C@@H](C(F)F)C1`, the logP came to 2.23.

For the compound `O=C(N[C@@H]1C[C@@H]1CF)c1ccccc1`, the logP worked out at 1.12.

`O=C(Nc1ccccc1)C1CC12CC2(F)F` (stereo unspecified) returned a logP of 2.66. Consider `O=C(N[C@@H]1C[C@@H]2C[C@@H]2C1)c1ccccc1`, for which the logP was 2.3. Under `O=C(c1ccccc1)N1CCC(CF)CC1` stands 1.45; under `O=C(c1ccccc1)N1CC(C(F)F)C1`, 1.4. `O=C(Nc1ccccc1)C12CC(CO1)C2` registered a logP of 1.54.

As for `O=C(Nc1ccccc1)C1CCC1(F)F` (stereo unspecified), the logP is 2.03. `O=C(Nc1ccccc1)C1CC1(F)F` (stereo unspecified) gave a logP of 2.07. In the case of `C[C@@H]1C[C@@H]1NC(=O)c1ccccc1`, the logP is 1.64. For the compound `O=C(N[C@H]1C[C@H](F)C1)c1ccccc1`, the logP came out at 1.71. For `O=C(c1ccccc1)N1CC2COCC(C2)C1`, the logP was determined as 0.84. As for `O=C(Nc1ccccc1)[C@@H]1C[C@H]1C(F)F`, the lipophilicity (logP) was 2.28. Under `O=C(c1ccccc1)N1CC2CCCC(C1)C2(F)F` stands 2.18. `CCCCC(=O)Nc1ccccc1` yielded a logP of 2.29. The logP values of the last two compounds are within 0.2 log units of each other.

Consider `O=C(Nc1ccccc1)C1CCC1`, for which the logP came out at 2.26.

Turning to `O=C(Nc1ccccc1)[C@@H]1C[C@@H]2[C@H](C1)C2(F)F`, the logP came out at 2.88. `O=C(c1ccccc1)N1CCC(F)(F)C1` yielded a logP of 1.35. Under `O=C(Nc1ccccc1)C1CC12CC2` (stereo unspecified) stands 2.35; under `O=C(NCCCC(F)(F)F)c1ccccc1`, 2.28.

`O=C(Nc1ccccc1)[C@H]1C[C@H]1C(F)(F)F` displayed a log partition coefficient (logP) of 2.12. Take `CC(F)(F)CCNC(=O)c1ccccc1`: the logP amounted to 1.81. Under `O=C(c1ccccc1)N1CCC(CF)C1` (stereo unspecified) stands 1.4; under `O=C(Nc1ccccc1)C12CC(C(F)(F)F)(CO1)C2`, 2.05. Take `O=C(c1ccccc1)N1CCC(C(F)(F)F)C1` (stereo unspecified): the logP was 1.7. In turn, `O=C(c1ccccc1)N1CC2CCCC1(C(F)(F)F)C2` (stereo unspecified) yielded a logP of 2.67. `O=C(c1ccccc1)N1CCC1CF` (stereo unspecified) had a logP of 1.4. Under `O=C(NC1CC2(C1)CC(F)(F)C2)c1ccccc1` stands 2.53; under `O=C(Nc1ccccc1)[C@H]1C[C@H](C(F)(F)F)C1`, 3.02; under `O=C(N[C@@H]1C[C@H]1CF)c1ccccc1`, 1.41. Take `O=C(c1ccccc1)N1CC2CC(C1)CS(=O)(=O)C2`: the logP is -0.34. `O=C(c1ccccc1)N1CCC1C(F)(F)F` (stereo unspecified): the logP came to 1.75. In turn, `O=C(Nc1ccccc1)C1CCCC(F)(F)C1` (stereo unspecified) showed a logP of 2.72.

Compound `O=C(c1ccccc1)N1CC2CCC(C1)C2(F)F` displayed a logP of 2.09. `O=C(Nc1ccccc1)C1CCC(F)(F)C1` (stereo unspecified) came in with a logP of 2.5. The compound `O=C(NC1(CF)CCC1)c1ccccc1` returned a logP of 2.03.

As for `O=C(c1ccccc1)N1CC[C@@H](F)[C@H](F)C1`, the logP was 1.26. Regarding `O=C(Nc1ccccc1)[C@@H]1C[C@@H]2C[C@@H]2C1`, the logP was determined as 2.92. With `O=C(c1ccccc1)N1CCC(C(F)F)CC1`, the logP amounted to 1.67. In turn, `O=C(NC1C(F)(F)C12CC2)c1ccccc1` (stereo unspecified) yielded a logP of 2.14.

Consider `O=C(Nc1ccccc1)[C@H]1C[C@H](F)C1`, for which the logP worked out at 2. Consider `O=C(N[C@@H]1CC[C@H]1CF)c1ccccc1`, for which the logP was 1.85. `O=C(CCCC(F)F)Nc1ccccc1` yielded a logP of 2.06. With `O=C(N[C@H]1C[C@H]1C(F)(F)F)c1ccccc1`, the logP came out at 2.16. The logP values of the last two compounds are within 0.2 log units of each other. Compound `O=C(Nc1ccccc1)C1CC(F)(F)C1` yielded a lipophilicity (logP) of 2.26. `O=C(Nc1ccccc1)[C@H]1C[C@@H](CF)C1` showed a logP of 1.96. Regarding `O=C(N[C@H]1C[C@@H](C(F)(F)F)C1)c1ccccc1`, the logP stood at 2.62. `O=C(NC1CCCC1)c1ccccc1` displayed a logP of 2.23. With `O=C(c1ccccc1)N1CC[C@@H](F)[C@@H](F)C1`, the logP is 1.15. Under `O=C(Nc1ccccc1)C1(CF)CCC1` stands 1.88. `O=C(c1ccccc1)N1CCCCC1C(F)(F)F` (stereo unspecified): the logP is 2.54.

In turn, `O=C(c1ccccc1)N1CC2CCC1CC2` displayed a logP of 2.01. `O=C(Nc1ccccc1)C1CC2(CCC2)C1`: the log partition coefficient (logP) was 3.27. `O=C(Nc1ccccc1)[C@H]1C[C@H]1C(F)F` displayed a logP of 2.35. As to `O=C(N[C@H]1C[C@H](C(F)F)C1)c1ccccc1`, the logP worked out at 1.97. Take `O=C(c1ccccc1)N1CC2CC(F)(F)CC(C1)C2(F)F`: the logP stood at 1.84.

In turn, `O=C(c1ccccc1)N1C[C@@H](F)[C@@H](F)C1` showed a logP of 1.01. Regarding `O=C(N[C@@H]1CC[C@H]1C(F)(F)F)c1ccccc1`, the logP was 2.54. As for `O=C(c1ccccc1)N1CC(F)(F)C1`, the log partition coefficient (logP) is 1.34. On to `O=C(c1ccccc1)N1CC2CC1C2`, for which the logP amounted to 1.47.

Turning to `O=C(Nc1ccccc1)[C@H]1C[C@H](C(F)F)C1`, the logP was found to be 2.39. Under `O=C(NC1CCCC1(F)F)c1ccccc1` (stereo unspecified) stands 1.87. `O=C(Nc1ccccc1)[C@@H]1C[C@H]1CF`: the logP is 1.12. Under `O=C(NC1CCCCCC1(F)F)c1ccccc1` (stereo unspecified) stands 2.56; under `O=C(c1ccccc1)N1C[C@@H](F)C[C@H](F)C1`, 1.35. As to `O=C(NC1CC12CC2)c1ccccc1` (stereo unspecified), the logP was determined as 2.08. In the case of `O=C(NC1CC1(F)F)c1ccccc1` (stereo unspecified), the logP came out at 1.51. Compound `O=C(c1ccccc1)N1CCCC1C(F)(F)F` (stereo unspecified) came in with a logP of 2.12. For `O=C(N[C@H]1C[C@@H](C(F)F)C1)c1ccccc1`, the logP turned out to be 1.98. Under `O=C(NCC(F)(F)F)c1ccccc1` stands 1.76; under `O=C(c1ccccc1)N1CCCCC1CF` (stereo unspecified), 2; under `O=C(Nc1ccccc1)C1CCC(F)(F)CC1`, 2.63. In turn, `CC12CCCC(CN1C(=O)c1ccccc1)C2` (stereo unspecified) came in with a logP of 2.41. `O=C(c1ccccc1)N1CCC(F)C1` (stereo unspecified) gave a logP of 0.91. `O=C(N[C@@H]1C[C@H]1C(F)F)c1ccccc1` came in with a logP of 1.64. Under `O=C(N[C@H]1C[C@@H]2[C@H](C1)C2(F)F)c1ccccc1` stands 2.47.

For the compound `O=C(NC1CCCC(F)(F)C1)c1ccccc1` (stereo unspecified), the logP was determined as 2.31. `O=C(NC1CC2(CCC2)C1)c1ccccc1` yielded a logP of 3.26. With `O=C(N[C@@H]1CC[C@@H]1F)c1ccccc1`, the logP was found to be 1.57. Consider `C[C@@H]1C[C@H]1NC(=O)c1ccccc1`, for which the logP turned out to be 1.83. In turn, `O=C(N[C@H]1C[C@H](C(F)(F)F)C1)c1ccccc1` displayed a logP of 2.82.

Compound `O=C(N[C@@H]1C[C@H]1C(F)(F)F)c1ccccc1` gave a logP of 1.79.

In the case of `CCNC(=O)c1ccccc1`, the logP came out at 1.31.

Turning to `O=C(NCCCC(F)F)c1ccccc1`, the logP worked out at 1.76. As for `O=C(Nc1ccccc1)[C@@H]1CC[C@@H]1F`, the logP came out at 1.74. `O=C(Nc1ccccc1)[C@@H]1C[C@H]1C(F)(F)F` returned a logP of 2.98. As for `O=C(NC1CCCCC1)c1ccccc1`, the logP was 2.72. Under `O=C(NC1CC(F)(F)C1)c1ccccc1` stands 1.94; under `O=C(N[C@H]1C[C@@H]2C[C@@H]2C1)c1ccccc1`, 2.19; under `O=C(NC1CCC(F)(F)CC1)c1ccccc1`, 2.32.

In turn, `O=C(NCCCF)c1ccccc1` had a logP of 1.28. Under `O=C(c1ccccc1)N1CCCC(C(F)F)C1` (stereo unspecified) stands 1.73. Turning to `O=C(Nc1ccccc1)[C@@H]1CC[C@H]1C(F)F`, the logP worked out at 2.22. `O=C(c1ccccc1)N1CCC(C(F)(F)F)CC1` had a logP of 2.2. Take `O=C(Nc1ccccc1)[C@H]1C[C@H](CF)C1`: the logP worked out at 2.14. `O=C(c1ccccc1)N1CCC1` had a logP of 1.13. Regarding `O=C(c1ccccc1)N1CCCC(CF)C1` (stereo unspecified), the logP worked out at 1.52. Under `O=C(c1ccccc1)N1CC2CCC1(C(F)(F)F)CC2` stands 2.51; under `CC12CCC(CC1)CN2C(=O)c1ccccc1`, 2.66. As to `O=C(NCCF)c1ccccc1`, the logP was found to be 1.07. For `O=C(Nc1ccccc1)C1CC2(CC(F)C2)C1` (stereo unspecified), the logP was 2.69.
